The source of these data is PubChem BioAssay (NCI).

Test systems include HCT-116 colon; HL-60(TB) leukemia; MCF7 breast; MDA-MB-435; OVCAR-8 ovarian; LOX IMVI melanoma; SK-OV-3 ovarian; OVCAR-3 ovarian; CCRF-CEM leukemia; MOLT-4 leukemia.
Common to all, as to test: NCI-60 cell line screen, 48 h

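Five concentrations, 48 hours, 96-well plates. GI50 marks 50% less growth. TGI: total growth inhibition.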 Bounds are passed on as bounds.

As to `CC1=C(C(=O)Nc2ccc(F)c(Cl)c2)C(c2cccc(Oc3ccccc3)c2)NC(=S)N1` (centres undefined), the GI50 is 14.6 µM with HCT-116 colon; 17.4 µM with HL-60(TB) leukemia; 12.8 µM with MCF7 breast; 11.9 µM in the test on MDA-MB-435; 11.3 µM in the test with OVCAR-8 ovarian; 8.77 µM with LOX IMVI melanoma. Besides, the GI50 in the test with SK-OV-3 ovarian was 15.9 µM; with OVCAR-3 ovarian, 11.3 µM; with CCRF-CEM leukemia it was 17.7 µM; in the test with MOLT-4 leukemia it was > 50 µM. Besides, the TGI with HCT-116 colon is 46.8 µM; in the test with HL-60(TB) leukemia, > 50 µM; in the test with MCF7 breast, > 50 µM; in the test on MDA-MB-435 it was 33.8 µM; with OVCAR-8 ovarian it was 26.9 µM; in the test with LOX IMVI melanoma, 20.2 µM. Besides, the TGI was 43.3 µM in the test with SK-OV-3 ovarian, 28.6 µM in the test on OVCAR-3 ovarian, 47.6 µM in the test with CCRF-CEM leukemia and > 50 µM in the test with MOLT-4 leukemia.

With `O=C1C=C(OCC=C(C(F)(F)F)C(F)(F)F)c2ccccc2C1=O`, the GI50 in the test with HCT-116 colon was 2.07 µM; in the test with HL-60(TB) leukemia, 2.44 µM; with MCF7 breast, 1.39 µM; with MDA-MB-435, 1.74 µM; with OVCAR-8 ovarian, 1.63 µM; with LOX IMVI melanoma it was 1.56 µM. The GI50 is 3.45 µM with SK-OV-3 ovarian, 1.78 µM in the test with OVCAR-3 ovarian, 1.17 µM in the test on CCRF-CEM leukemia and 2.35 µM in the test on MOLT-4 leukemia. Further, the TGI turned out to be 5.08 µM with HCT-116 colon; 6.49 µM in the test on HL-60(TB) leukemia; 3.94 µM with MCF7 breast; 3.3 µM in the test with MDA-MB-435; 3.12 µM in the test with OVCAR-8 ovarian; 3.46 µM with LOX IMVI melanoma. Further, the TGI in the test with SK-OV-3 ovarian came out at 12 µM; in the test on OVCAR-3 ovarian, 3.39 µM; in the test on CCRF-CEM leukemia it was 5.22 µM; in the test on MOLT-4 leukemia, 5.38 µM.

Regarding `Cc1c2ccncc2c(C)c2c1sc1ccccc12`, the TGI stood at 15.8 µM in the test on HCT-116 colon; 17.3 µM in the test with HL-60(TB) leukemia; 18.1 µM in the test with MCF7 breast; 39.3 µM with MDA-MB-435; 25.1 µM in the test with OVCAR-8 ovarian; 21.5 µM with LOX IMVI melanoma. The TGI with SK-OV-3 ovarian was found to be 34.4 µM; in the test on OVCAR-3 ovarian, 29.6 µM; in the test on CCRF-CEM leukemia it was 30.4 µM; with MOLT-4 leukemia, 7.28 µM.

Regarding `COc1ccc(C2C(C#N)=C(N)Oc3c2sc2c(Br)cccc32)cc1` (centres undefined), the GI50 is 1.93 µM with HCT-116 colon; 1.12 µM in the test with HL-60(TB) leukemia; 0.467 µM with MCF7 breast; 0.373 µM in the test on MDA-MB-435; 4.99 µM in the test with OVCAR-8 ovarian; 2.03 µM in the test on LOX IMVI melanoma. In addition, the GI50 is 4.68 µM in the test with SK-OV-3 ovarian, 0.979 µM in the test with OVCAR-3 ovarian, 1.63 µM in the test on CCRF-CEM leukemia and 1.55 µM with MOLT-4 leukemia. Besides, the TGI turned out to be 12.3 µM in the test on HCT-116 colon; 3.73 µM in the test with HL-60(TB) leukemia; 12 µM with MCF7 breast; 2.54 µM in the test on MDA-MB-435; 25.3 µM in the test with OVCAR-8 ovarian; 12.8 µM with LOX IMVI melanoma. Moreover, the TGI in the test on SK-OV-3 ovarian turned out to be 19.9 µM; in the test with OVCAR-3 ovarian, 3.75 µM; with CCRF-CEM leukemia, 7.02 µM; in the test on MOLT-4 leukemia, 6.78 µM.

For `COc1ccc(-c2cc(-c3ccc(Cl)cc3)nc(NCCCCNc3ccnc4cc(Cl)ccc34)n2)cc1`, the GI50 in the test on HCT-116 colon is 1.5 µM; in the test with HL-60(TB) leukemia it was 5.08 µM; in the test with MCF7 breast it was 1.82 µM; in the test with MDA-MB-435 it was 1.79 µM; in the test with OVCAR-8 ovarian, 1.9 µM; in the test with LOX IMVI melanoma it was 1.7 µM. In addition, the GI50 with SK-OV-3 ovarian was 13 µM; in the test on OVCAR-3 ovarian, 1.65 µM; in the test on CCRF-CEM leukemia it was 2.6 µM; in the test with MOLT-4 leukemia it was 2.65 µM. The TGI turned out to be 2.92 µM in the test on HCT-116 colon; 22.1 µM with HL-60(TB) leukemia; 3.73 µM in the test with MCF7 breast; 3.27 µM with MDA-MB-435; 4.28 µM in the test with OVCAR-8 ovarian; 3.18 µM in the test on LOX IMVI melanoma. The TGI was 27.3 µM in the test on SK-OV-3 ovarian, 3.11 µM in the test with OVCAR-3 ovarian, > 100 µM with CCRF-CEM leukemia and 8.28 µM with MOLT-4 leukemia.

With `C=C1C(=O)O[C@H]2[C@H]1CC/C(COC(=O)/C=C\C(=O)NCc1ccc(Cn3c(=O)sn(CCI)c3=O)cc1)=C\CC[C@@]1(C)O[C@@H]21`, the GI50 in the test with HCT-116 colon was 1.93 µM; in the test with HL-60(TB) leukemia, 1.59 µM; in the test on MCF7 breast it was 3.37 µM; in the test on MDA-MB-435, 3.04 µM; with OVCAR-8 ovarian it was 2.78 µM; with LOX IMVI melanoma, 2.18 µM. The GI50 in the test on SK-OV-3 ovarian was 17.4 µM; in the test on OVCAR-3 ovarian it was 1.76 µM; with CCRF-CEM leukemia, 1.61 µM; in the test with MOLT-4 leukemia, 2.24 µM. Also, the TGI is 4.75 µM in the test with HCT-116 colon; 5.41 µM in the test on HL-60(TB) leukemia; 25.9 µM in the test with MCF7 breast; 8.68 µM in the test with MDA-MB-435; 8.76 µM in the test with OVCAR-8 ovarian; 4.88 µM in the test on LOX IMVI melanoma. Also, the TGI with SK-OV-3 ovarian was 31.2 µM; in the test with OVCAR-3 ovarian, 3.24 µM; in the test on CCRF-CEM leukemia, 6.19 µM; with MOLT-4 leukemia, 6.32 µM.

In the case of `COc1cc([N+](=O)[O-])c(S(=O)(=O)O)cc1-n1nc(C(=O)Nc2ccccc2)n[n+]1-c1cc(S(=O)(=O)[O-])c([N+](=O)[O-])cc1OC`, the TGI in the test with HCT-116 colon, in the test with HL-60(TB) leukemia, in the test on MCF7 breast, with MDA-MB-435, with OVCAR-8 ovarian and in the test with LOX IMVI melanoma was > 100 µM throughout. Also, the TGI in the test with SK-OV-3 ovarian, in the test with OVCAR-3 ovarian, in the test with CCRF-CEM leukemia and in the test with MOLT-4 leukemia was > 100 µM each time.

For the molecule `CCN(CC)c1ccc(-c2cc(-c3cc(OC)c(OC)c(OC)c3)nc(N3CCC(O)CC3)c2C#N)cc1`, the GI50 with HCT-116 colon is 0.281 µM; in the test with HL-60(TB) leukemia, 0.497 µM; in the test with MCF7 breast, 0.628 µM; in the test on MDA-MB-435, 0.272 µM; with OVCAR-8 ovarian it was 0.441 µM; in the test with LOX IMVI melanoma, 0.0419 µM. The GI50 in the test with SK-OV-3 ovarian is 1.8 µM; with OVCAR-3 ovarian it was 1.17 µM; in the test with CCRF-CEM leukemia, 0.6 µM; with MOLT-4 leukemia, 0.621 µM. The TGI in the test on HCT-116 colon is 1.71 µM; with HL-60(TB) leukemia, 2.33 µM; with MDA-MB-435 it was 1.12 µM; with OVCAR-8 ovarian, 7.44 µM; in the test with LOX IMVI melanoma, 0.172 µM; with SK-OV-3 ovarian it was > 31.6 µM. Further, the TGI in the test on OVCAR-3 ovarian was 3.02 µM; in the test with CCRF-CEM leukemia it was > 100 µM; in the test on MOLT-4 leukemia it was 5.17 µM.
